# Reference: ChEMBL document CHEMBL5325488, “Discovery of SMD-3040 as a Potent and Selective SMARCA2 PROTAC Degrader with Strong in vivo Antitumor Activity” (J Med Chem, 2023)
# Key:
# [1] = molecular target: T1, von Hippel-Lindau disease tumor suppressor/SWI/SNF-related matrix-associated actin-dependent regulator of chromatin subfamily A member 4 (Homo sapiens, UniProt P51532+P40337); assay: PROTAC activity at VHL/C-terminal HiBiT fused SMARCA4 in human HeLa cells assessed as induction of SMARCA4 degradation at 0.00001 to 1 uM by Nano-Glo HiBiT analysis; type: cell-based; settings: dose lower 1e-05 µM, dose upper 1.0 µM, time 6-48 hrs, TDE = time-dependent effect
# Target sequence in this assay (P40337 whole entry, looked up, the tested form may be a part): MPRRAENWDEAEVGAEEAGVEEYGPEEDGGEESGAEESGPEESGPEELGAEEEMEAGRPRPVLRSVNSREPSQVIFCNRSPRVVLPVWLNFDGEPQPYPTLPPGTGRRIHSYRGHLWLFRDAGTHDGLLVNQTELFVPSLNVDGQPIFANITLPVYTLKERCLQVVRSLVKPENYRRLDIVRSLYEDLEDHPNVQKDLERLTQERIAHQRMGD
# Target sequence in this assay (P51532 whole entry, looked up, the tested form may be a part): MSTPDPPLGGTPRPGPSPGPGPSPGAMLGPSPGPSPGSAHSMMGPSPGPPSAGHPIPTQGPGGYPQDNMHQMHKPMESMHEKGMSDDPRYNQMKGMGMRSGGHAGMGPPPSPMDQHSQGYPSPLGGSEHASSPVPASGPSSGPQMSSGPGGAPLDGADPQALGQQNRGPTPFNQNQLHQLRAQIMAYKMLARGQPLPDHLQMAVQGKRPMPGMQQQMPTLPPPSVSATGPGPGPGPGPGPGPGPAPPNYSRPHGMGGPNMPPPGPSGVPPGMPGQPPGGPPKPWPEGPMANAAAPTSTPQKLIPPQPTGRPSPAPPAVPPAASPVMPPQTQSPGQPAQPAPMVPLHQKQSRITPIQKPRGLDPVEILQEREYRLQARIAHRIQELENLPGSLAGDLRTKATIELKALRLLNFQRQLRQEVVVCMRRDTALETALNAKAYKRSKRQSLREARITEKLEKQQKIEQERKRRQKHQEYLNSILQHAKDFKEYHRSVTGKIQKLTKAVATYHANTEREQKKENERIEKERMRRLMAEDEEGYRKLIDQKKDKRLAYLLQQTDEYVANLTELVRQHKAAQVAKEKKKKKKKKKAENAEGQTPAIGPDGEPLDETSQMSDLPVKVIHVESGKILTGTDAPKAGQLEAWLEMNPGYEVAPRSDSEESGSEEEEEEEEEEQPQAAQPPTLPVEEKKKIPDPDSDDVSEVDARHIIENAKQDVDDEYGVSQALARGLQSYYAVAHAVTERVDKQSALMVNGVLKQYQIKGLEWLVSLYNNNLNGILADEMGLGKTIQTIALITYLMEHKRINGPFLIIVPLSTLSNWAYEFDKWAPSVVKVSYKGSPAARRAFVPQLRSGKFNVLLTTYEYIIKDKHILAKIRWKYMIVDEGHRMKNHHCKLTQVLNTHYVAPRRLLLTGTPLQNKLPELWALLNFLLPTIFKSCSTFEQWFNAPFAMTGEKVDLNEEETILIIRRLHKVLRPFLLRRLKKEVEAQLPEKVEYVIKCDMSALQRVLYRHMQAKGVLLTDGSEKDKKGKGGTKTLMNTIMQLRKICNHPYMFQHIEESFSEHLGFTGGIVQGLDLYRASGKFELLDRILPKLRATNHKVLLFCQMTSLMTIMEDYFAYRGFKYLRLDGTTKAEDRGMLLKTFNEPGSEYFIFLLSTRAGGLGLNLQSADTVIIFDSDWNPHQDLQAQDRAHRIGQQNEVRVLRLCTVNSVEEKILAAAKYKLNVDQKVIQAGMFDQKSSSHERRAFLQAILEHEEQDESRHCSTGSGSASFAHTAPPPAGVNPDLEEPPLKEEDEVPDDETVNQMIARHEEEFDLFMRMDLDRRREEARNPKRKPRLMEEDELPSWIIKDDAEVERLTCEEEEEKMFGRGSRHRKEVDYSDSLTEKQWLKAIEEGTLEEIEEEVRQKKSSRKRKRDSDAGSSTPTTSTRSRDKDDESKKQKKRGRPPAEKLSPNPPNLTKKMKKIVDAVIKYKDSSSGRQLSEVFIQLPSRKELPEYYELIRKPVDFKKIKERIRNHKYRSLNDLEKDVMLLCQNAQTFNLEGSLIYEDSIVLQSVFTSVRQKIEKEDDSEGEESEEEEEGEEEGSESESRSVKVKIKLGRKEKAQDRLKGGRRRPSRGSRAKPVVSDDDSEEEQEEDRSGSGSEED
# [2] = test system: NCI-H838; assay: Antiproliferative activity against SMARCA4-deficient human NCI-H838 cells assessed as cell growth inhibition by measuring maximal efficacy measured after 7 days by WST-8 assay relative to control; type: functional; settings: time 7 day
# [3] = molecular target: T1, von Hippel-Lindau disease tumor suppressor/SWI/SNF-related matrix-associated actin-dependent regulator of chromatin subfamily A member 4; assay: PROTAC activity at VHL/C-terminal HiBiT fused SMARCA4 in human HeLa cells assessed as induction of SMARCA4 degradation incubated for 24 hrs by Nano-Glo HiBiT analysis; type: cell-based
# [4] = test system: NCI-H1299; assay: Antiproliferative activity against SMARCA4-deficient human NCI-H1299 cells assessed as cell growth inhibition by measuring maximal efficacy measured after 7 days by WST-8 assay relative to control; type: functional; settings: time 7 day
# [5] = molecular target: T2, von Hippel-Lindau disease tumor suppressor/SWI/SNF-related matrix-associated actin-dependent regulator of chromatin subfamily A member 2 (Homo sapiens, UniProt P51531+P40337); assay: PROTAC activity at VHL/C-terminal HiBiT fused SMARCA2 in human HeLa cells assessed as induction of SMARCA2 degradation at 0.000001 to 1 uM by Nano-Glo HiBiT analysis; type: cell-based; settings: dose lower 1e-06 µM, dose upper 1.0 µM, time 6-48 hrs, TDE = time-dependent effect
# Target sequence in this assay (P40337 whole entry, looked up, the tested form may be a part): as the sequence (P40337 whole entry, looked up, the tested form may be a part) above
# Target sequence in this assay (P51531 whole entry, looked up, the tested form may be a part): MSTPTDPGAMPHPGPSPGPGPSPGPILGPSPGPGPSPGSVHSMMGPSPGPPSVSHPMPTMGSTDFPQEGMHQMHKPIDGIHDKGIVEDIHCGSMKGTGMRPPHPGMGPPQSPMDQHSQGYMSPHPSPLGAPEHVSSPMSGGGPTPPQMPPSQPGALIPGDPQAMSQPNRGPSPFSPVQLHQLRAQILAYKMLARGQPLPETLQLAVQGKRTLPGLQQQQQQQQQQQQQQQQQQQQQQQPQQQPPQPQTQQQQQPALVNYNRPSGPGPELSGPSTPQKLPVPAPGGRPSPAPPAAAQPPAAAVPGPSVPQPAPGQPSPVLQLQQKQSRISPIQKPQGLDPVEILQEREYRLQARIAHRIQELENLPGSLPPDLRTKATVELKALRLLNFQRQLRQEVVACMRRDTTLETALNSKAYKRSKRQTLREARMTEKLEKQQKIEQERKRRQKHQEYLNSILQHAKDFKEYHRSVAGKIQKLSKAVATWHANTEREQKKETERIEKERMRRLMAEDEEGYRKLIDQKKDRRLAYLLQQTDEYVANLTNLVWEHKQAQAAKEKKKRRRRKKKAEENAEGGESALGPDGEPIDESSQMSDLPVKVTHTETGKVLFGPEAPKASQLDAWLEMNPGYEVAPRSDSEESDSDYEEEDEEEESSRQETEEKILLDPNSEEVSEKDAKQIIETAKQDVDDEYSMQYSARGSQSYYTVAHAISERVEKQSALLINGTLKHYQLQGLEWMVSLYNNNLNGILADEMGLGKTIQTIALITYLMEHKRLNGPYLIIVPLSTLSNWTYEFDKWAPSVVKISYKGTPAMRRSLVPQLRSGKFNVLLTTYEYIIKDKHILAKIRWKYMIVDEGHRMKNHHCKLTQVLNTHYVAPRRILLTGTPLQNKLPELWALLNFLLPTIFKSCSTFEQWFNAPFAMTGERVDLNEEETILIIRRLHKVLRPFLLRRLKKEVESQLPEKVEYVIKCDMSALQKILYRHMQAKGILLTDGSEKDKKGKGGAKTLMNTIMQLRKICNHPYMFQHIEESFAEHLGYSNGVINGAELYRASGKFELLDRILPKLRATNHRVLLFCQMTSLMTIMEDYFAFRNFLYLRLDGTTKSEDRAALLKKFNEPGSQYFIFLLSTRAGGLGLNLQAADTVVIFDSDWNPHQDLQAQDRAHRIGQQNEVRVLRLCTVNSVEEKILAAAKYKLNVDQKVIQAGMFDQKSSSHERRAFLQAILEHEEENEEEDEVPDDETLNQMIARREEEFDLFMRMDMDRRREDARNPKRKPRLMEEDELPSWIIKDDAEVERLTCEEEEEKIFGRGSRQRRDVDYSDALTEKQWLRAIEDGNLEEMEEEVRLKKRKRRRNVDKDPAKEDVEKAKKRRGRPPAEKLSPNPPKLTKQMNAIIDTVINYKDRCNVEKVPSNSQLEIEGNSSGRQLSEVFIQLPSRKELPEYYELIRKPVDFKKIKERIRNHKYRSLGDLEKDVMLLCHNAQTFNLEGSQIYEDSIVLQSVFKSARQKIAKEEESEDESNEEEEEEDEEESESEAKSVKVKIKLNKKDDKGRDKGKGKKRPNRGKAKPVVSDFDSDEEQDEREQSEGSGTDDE
# [6] = molecular target: T2, von Hippel-Lindau disease tumor suppressor/SWI/SNF-related matrix-associated actin-dependent regulator of chromatin subfamily A member 2; assay: PROTAC activity at VHL/C-terminal HiBiT fused SMARCA2 in human HeLa cells assessed as induction of SMARCA2 degradation by measuring maximal efficacy incubated for 24 hrs by Nano-Glo HiBiT analysis relative to control; type: cell-based
# Target sequence in this assay (P40337 whole entry, looked up, the tested form may be a part): as the sequence (P40337 whole entry, looked up, the tested form may be a part) above
# Target sequence in this assay (P51531 whole entry, looked up, the tested form may be a part): as the sequence (P51531 whole entry, looked up, the tested form may be a part) above
# [7] = molecular target: T2, von Hippel-Lindau disease tumor suppressor/SWI/SNF-related matrix-associated actin-dependent regulator of chromatin subfamily A member 2; assay: PROTAC activity at VHL/SMARCA2 in human RKO cells assessed as induction of SMARCA2 degradation by measuring maximal efficacy incubated for 18 hrs by Western blotting analysis relative to control; type: cell-based
# Target sequence in this assay (P40337 whole entry, looked up, the tested form may be a part): as the sequence (P40337 whole entry, looked up, the tested form may be a part) above
# Target sequence in this assay (P51531 whole entry, looked up, the tested form may be a part): as the sequence (P51531 whole entry, looked up, the tested form may be a part) above
# [8] = test system: SK-MEL-5; assay: Antiproliferative activity against SMARCA4-deficient human SK-MEL-5 cells assessed as cell growth inhibition by measuring maximal efficacy measured after 7 days by WST-8 assay relative to control; type: functional; settings: time 7 day
# [9] = test system: NCI-H1944; assay: Antiproliferative activity against SMARCA4-deficient human NCI-H1944 cells assessed as cell growth inhibition measured after 7 days by WST-8 assay; type: functional; settings: NCI-H1944, 168 h, time 7 day
# [10] = molecular target: T1, von Hippel-Lindau disease tumor suppressor/SWI/SNF-related matrix-associated actin-dependent regulator of chromatin subfamily A member 4; assay: PROTAC activity at VHL/SMARCA4 in human RKO cells assessed as induction of […] degradation by measuring maximal efficacy incubated for 18 hrs by Western blotting analysis relative to control; type: cell-based
# Target sequence in this assay (P40337 whole entry, looked up, the tested form may be a part): as the sequence (P40337 whole entry, looked up, the tested form may be a part) above
# Target sequence in this assay (P51532 whole entry, looked up, the tested form may be a part): as the sequence (P51532 whole entry, looked up, the tested form may be a part) above
# [11] = test system: NCI-H1975; assay: Antiproliferative activity against human NCI-H1975 cells expressing wild-type SMARCA2 assessed as cell growth inhibition by measuring maximal efficacy measured after 7 days by WST-8 assay relative to control; type: functional; settings: time 7 day
# [12] = test system: SK-MEL-5; assay: Antiproliferative activity against SMARCA4-deficient human SK-MEL-5 cells assessed as cell growth inhibition measured after 7 days by WST-8 assay; type: functional; settings: SK-MEL-5, 168 h, time 7 day
# [13] = Antiproliferative activity against SMARCA4-deficient human NCI-H1568 cells assessed as cell growth inhibition measured after 7 days by WST-8 assay; type: functional; settings: NCI-H1568, 168 h, time 7 day
# [14] = test system: NCI-H1299; assay: Antiproliferative activity against SMARCA4-deficient human NCI-H1299 cells assessed as cell growth inhibition measured after 7 days by WST-8 assay; type: functional; settings: NCI-H1299, 168 h, time 7 day
# [15] = test system: A549; assay: Antiproliferative activity against SMARCA4-deficient human A549 cells assessed as cell growth inhibition measured after 7 days by WST-8 assay; type: functional; settings: A549, 168 h, time 7 day
# [16] = test system: NCI-H647; assay: Antiproliferative activity against human NCI-H647 cells expressing wild-type SMARCA2 assessed as cell growth inhibition measured after 7 days by WST-8 assay; type: functional; settings: NCI-H647, 168 h, time 7 day
# [17] = test system: NCI-H1793; assay: Antiproliferative activity against SMARCA4-deficient human NCI-H1793 cells assessed as cell growth inhibition measured after 7 days by WST-8 assay; type: functional; settings: NCI-H1793, 168 h, time 7 day
# [18] = test system: NCI-H1693; assay: Antiproliferative activity against SMARCA4-deficient human NCI-H1693 cells assessed as cell growth inhibition measured after 7 days by WST-8 assay; type: functional; settings: NCI-H1693, 168 h, time 7 day
# [19] = test system: NCI-H1793; assay: Antiproliferative activity against SMARCA4-deficient human NCI-H1793 cells assessed as cell growth inhibition by measuring maximal efficacy measured after 7 days by WST-8 assay relative to control; type: functional; settings: time 7 day
# [20] = molecular target: T2, von Hippel-Lindau disease tumor suppressor/SWI/SNF-related matrix-associated actin-dependent regulator of chromatin subfamily A member 2; assay: PROTAC activity at VHL/SMARCA2 in human RKO cells assessed as induction of SMARCA2 degradation incubated for 18 hrs by Western blotting analysis; type: cell-based
# [21] = test system: NCI-H838; assay: Antiproliferative activity against SMARCA4-deficient human NCI-H838 cells assessed as cell growth inhibition measured after 7 days by WST-8 assay; type: functional; settings: NCI-H838, 168 h, time 7 day
# [22] = molecular target: T1, von Hippel-Lindau disease tumor suppressor/SWI/SNF-related matrix-associated actin-dependent regulator of chromatin subfamily A member 4; assay: PROTAC activity at VHL/C-terminal HiBiT fused SMARCA4 in human HeLa cells assessed as induction of SMARCA4 degradation by measuring maximal efficacy incubated for 24 hrs by Nano-Glo HiBiT analysis relative to control; type: cell-based
# Target sequence in this assay (P40337 whole entry, looked up, the tested form may be a part): as the sequence (P40337 whole entry, looked up, the tested form may be a part) above
# Target sequence in this assay (P51532 whole entry, looked up, the tested form may be a part): as the sequence (P51532 whole entry, looked up, the tested form may be a part) above
# [23] = test system: SK-MEL-28; assay: Antiproliferative activity against human SK-MEL-28 cells expressing wild-type SMARCA2 assessed as cell growth inhibition by measuring maximal efficacy measured after 7 days by WST-8 assay relative to control; type: functional; settings: time 7 day
# [24] = molecular target: T1, von Hippel-Lindau disease tumor suppressor/SWI/SNF-related matrix-associated actin-dependent regulator of chromatin subfamily A member 4; assay: PROTAC activity at VHL/SMARCA4 in human RKO cells assessed as induction of […] degradation incubated for 18 hrs by Western blotting analysis; type: cell-based
# [25] = molecular target: T1, von Hippel-Lindau disease tumor suppressor/SWI/SNF-related matrix-associated actin-dependent regulator of chromatin subfamily A member 4; assay: PROTAC activity at VHL/C-terminal HiBiT fused SMARCA4 in human HeLa cells assessed as induction of SMARCA4 degradation incubated for 6 to 48 hrs by Nano-Glo HiBiT analysis; type: cell-based; settings: dose lower 1e-05 µM, dose upper 1.0 µM, time 6-48 hrs
# Target sequence in this assay (P40337 whole entry, looked up, the tested form may be a part): as the sequence (P40337 whole entry, looked up, the tested form may be a part) above
# Target sequence in this assay (P51532 whole entry, looked up, the tested form may be a part): as the sequence (P51532 whole entry, looked up, the tested form may be a part) above
# [26] = test system: NCI-H1944; assay: Antiproliferative activity against SMARCA4-deficient human NCI-H1944 cells assessed as cell growth inhibition by measuring maximal efficacy measured after 7 days by WST-8 assay relative to control; type: functional; settings: time 7 day
# [27] = test system: A549; assay: Antiproliferative activity against SMARCA4-deficient human A549 cells assessed as cell growth inhibition by measuring maximal efficacy measured after 7 days by WST-8 assay relative to control; type: functional; settings: time 7 day
# [28] = molecular target: T2, von Hippel-Lindau disease tumor suppressor/SWI/SNF-related matrix-associated actin-dependent regulator of chromatin subfamily A member 2; assay: PROTAC activity at VHL/C-terminal HiBiT fused SMARCA2 in human HeLa cells assessed as induction of SMARCA2 degradation incubated for 6 to 48 hrs by Nano-Glo HiBiT analysis; type: cell-based; settings: dose lower 1e-06 µM, dose upper 1.0 µM, time 6-48 hrs
# Target sequence in this assay (P40337 whole entry, looked up, the tested form may be a part): as the sequence (P40337 whole entry, looked up, the tested form may be a part) above
# Target sequence in this assay (P51531 whole entry, looked up, the tested form may be a part): as the sequence (P51531 whole entry, looked up, the tested form may be a part) above
# [29] = test system: NCI-H1792; assay: Antiproliferative activity against human NCI-H1792 cells expressing wild-type SMARCA2 assessed as cell growth inhibition measured after 7 days by WST-8 assay; type: functional; settings: NCI-H1792, 168 h, time 7 day
# [30] = test system: NCI-H1792; assay: Antiproliferative activity against human NCI-H1792 cells expressing wild-type SMARCA2 assessed as cell growth inhibition by measuring maximal efficacy measured after 7 days by WST-8 assay relative to control; type: functional; settings: time 7 day
# [31] = test system: NCI-H1975; assay: Antiproliferative activity against human NCI-H1975 cells expressing wild-type SMARCA2 assessed as cell growth inhibition measured after 7 days by WST-8 assay; type: functional; settings: NCI-H1975, 168 h, time 7 day
# [32] = test system: NCI-H647; assay: Antiproliferative activity against human NCI-H647 cells expressing wild-type SMARCA2 assessed as cell growth inhibition by measuring maximal efficacy measured after 7 days by WST-8 assay relative to control; type: functional; settings: time 7 day
# [33] = test system: NCI-H1693; assay: Antiproliferative activity against SMARCA4-deficient human NCI-H1693 cells assessed as cell growth inhibition by measuring maximal efficacy measured after 7 days by WST-8 assay relative to control; type: functional; settings: time 7 day
# [34] = Antiproliferative activity against SMARCA4-deficient human NCI-H1568 cells assessed as cell growth inhibition by measuring maximal efficacy measured after 7 days by WST-8 assay relative to control; type: functional; settings: time 7 day
# [35] = test system: SK-MEL-28; assay: Antiproliferative activity against human SK-MEL-28 cells expressing wild-type SMARCA2 assessed as cell growth inhibition measured after 7 days by WST-8 assay; type: functional; settings: SK-MEL-28, 168 h, time 7 day
compound,measurement,setting,value
Cc1ncsc1-c1ccc([C@H](CC[C@H](C)CCN2CCC(c3ccc4c(c3)n(C3CCCC3)c3nc(=O)c5c(Br)cccc5n43)CC2)NC(=O)[C@@H]2C[C@@H](O)CN2C(=O)[C@@H](NC(=O)C2(F)CC2)C(C)(C)C)cc1,Activity,[1],Tde
same,Imax,[2],82%
same,DC50,[3],9 nM
same,Imax,[4],74%
same,Activity,[5],Tde
same,Emax,[6],94%
same,Emax,[7],81%
same,Imax,[8],96%
same,GI50,[9],13 nM
same,Emax,[10],67%
same,Imax,[11],63%
same,GI50,[12],4.9 nM
same,GI50,[13],2.8 nM
same,GI50,[14],116 nM
same,GI50,[15],30 nM
same,GI50,[16],165 nM
same,GI50,[17],7.3 nM
same,GI50,[18],2.8 nM
same,Imax,[19],68%
same,DC50,[20],1 nM
same,GI50,[21],67 nM
same,Emax,[22],92%
same,Imax,[23],50%
same,DC50,[24],32 nM
same,Activity,[25],Dose-Dependent Effect
same,Imax,[26],82%
same,Imax,[27],56%
same,Activity,[28],Dose-Dependent Effect
same,GI50,[29],135 nM
same,Imax,[30],65%
same,GI50,[31],65 nM
same,Imax,[32],80%
same,Imax,[33],86%
same,Imax,[34],90%
same,GI50,[35],> 10000 nM
